Assays:
[1] = test system: MuRF1; assay: Chronic denervation: MuRF1 mRNA in gastrocnemius (qPCR); assay type: in vivo, rat; details: for reduction of MuRF1 expression: denervated muscle
Experimental: (§1) Male Wistar rats weighing 200-250 gm (Taconic Farms, Germantown, N.Y.) were provided food and water ad libitum and were housed in a temperature and humidity controlled environment providing a 12:12 hour day-night cycle. For surgical procedures, animals were anesthetized with ketamine/xylazine. The left sciatic nerve was exposed by blunt dissection, and a 1 to 2 mm piece of this nerve was excised just below the level of the femoral head. A sham surgery was performed on the right hind limb in which the sciatic nerve was exposed but was not transected. Twenty eight days later, animals were anesthetized, and Alzet pumps were implanted subcutaneously on the back. […] Testosterone levels after replacement were approximately 15 nM, a high-normal range for rats of this age. Animals were sacrificed 3, 7 or 28 days after implantation of the miniosmotic pumps by inhalation of carbon dioxide. Gastrocnemius muscles were excised and weighed, then flash frozen on dry ice and stored at −80° C.
Total RNA was extracted from skeletal muscle (20 mg) by homogenization in guanidine thiocyanate using a Polytron followed by extraction of total RNA with phenol-chloroform as described by (Chomczynski and Sacchi, Anal Biochem 162: 156-159, 1987). Total RNA was further enriched using RNAeasy minicolumns (Qiagen, Valencia, Calif.). This procedure included digestion of contaminating DNA on the column with RNAse-free DNAse (Qiagen). Total RNA was eluted and quantified by absorbance at 260 nm. One μg of total RNA was used to prepare a cDNA library by reverse transcription (High Capacity cDNA Archive Kit, Applied Biosystems). Libraries were diluted 25-fold with water. Real time PCR was performed Taqman 2×PCR buffer (Applied Biosystems) using an Applied Biosystems 7500 thermocycler. Levels of gene expression in the denervated muscle were expressed as fold induction relative to muscle from the sham-denervated leg of animals administered vehicle. […] Fold-induction was determined using the 2^−ΔΔCt method, using expression of 18S RNA as the normalization control. […]

[2] = test system: myostatin; assay: Chronic denervation: myostatin mRNA in gastrocnemius (qPCR); assay type: in vivo, rat
Experimental: as §1, with “Animals were sacrificed 3, 7 or 28 days after implantation of the miniosmotic pumps by inhalation of carbon dioxide. Gastrocnemius muscles were excised and weighed, then flash frozen on dry ice and stored at −80° C.” left out
Total RNA was extracted from skeletal muscle (20 mg) by homogenization in guanidine thiocyanate using a Polytron followed by extraction of total RNA with phenol-chloroform as described by (Chomczynski and Sacchi, Anal Biochem 162: 156-159, 1987). […] Total RNA was eluted and quantified by absorbance at 260 nm. […] Levels of gene expression in the denervated muscle were expressed as fold induction relative to muscle from the sham-denervated leg of animals administered vehicle. […] Fold-induction was determined using the 2^−ΔΔCt method, using expression of 18S RNA as the normalization control. […]

[3] = Chronic denervation: gastrocnemius muscle weights; assay type: in vivo, rat
Experimental: as §1

[4] = test system: human MAFbx promoter; assay: Human MAFbx promoter luciferase reporter assay in C2C12 / C2C12.AR cells; assay type: cell-based
Excerpt: The reporter genes pMAF3.1, pMAF2.4, pMAF948, pMAF400, and pMAF400-241 express firefly luciferase under the control of promoter regions of the human MAFbx gene and are described in Example 1. The rARC562G vector, encoding rat AR with a C562->G mutation in the first zinc binding module that disrupts binding of AR to DNA was described by Palvimo et al. (Mol Endocrinol 7: 1399-1407, 1993) pAR.4RKM (expressing AR with 4 R/K->M mutations in the nuclear localization sequence that is unable to enter the nucleus) and pAR.ABC (lacking the ligand binding domain) were described by Zhou et al. (J Biol Chem 269: 13115-13123, 1994). The pBabe.puro retroviral backbone described by Morgenstern and Land (Nucleic Acids Res 18: 3587-3596, 1990) was modified by introduction of a Not1 site. The ARE reporter gene expressing firefly luciferase under control of the MMTV hormone response element, and pSP72hAR-1, containing an insert of the full-length cDNA clone of the human AR, were provided by Dr. Diane Robins (University of Michigan). pRL-CMV expressing Renilla luciferase was from Promega (Madison, Wis.).
C2C12 cells (American Type Culture Collection, Manassas, Va.) were maintained in Dulbeco's modified Eagle's Medium (DMEM) containing 10% fetal bovine serum (FBS) and penicillin (100 U/ml)/streptomycin (100 μg/ml) (growth medium). Cells were incubated at 37° C. in humidified air containing 10% CO2. 293T cells (American Type Culture Collection) were maintained in growth medium as above. Transfection was achieved using Lipofectamine-Plus (Invitrogen, Carlsbad, Calif.) using 200 ng total DNA per well.
Cells were seeded into wells of 24-well plates (5×10^5 cells/well) then maintained overnight in DMEM with 10% CDS-FBS. Cells were co-transfected with the various reporter genes and pRL-CMV. Cells were incubated in the transfection mixture overnight, then covered with DMEM supplemented with 10% charcoal-dextran-stripped FBS (CDS-FBS) and either ethanol (EtOH) or hormones dissolved in EtOH. Cells were maintained for an additional 24 hours, at which time both firefly and renilla luciferase activity were determined using the Dual Luciferase Assay (Promega, Madison, Wis.) and a Berthold 96-well plate luminometer. Firefly luciferase activities were normalized relative to renilla luciferase. Ethanol concentrations were less than 0.1%.

SMILES: C[C@]12CC[C@H]3[C@@H](CCC4=CC(=O)CC[C@@H]43)[C@@H]1CC[C@@H]2O [nandrolone]
- reduction of MuRF1 expression ([1]; 7-days administration): 31%
- reduction of MuRF1 expression ([1]; 28-days administration): 37%
- MuRF1 expression ([1]; muscle of sham-denervated hindlimbs): no effect
- myostatin expression ([2]; denervated muscle, 7 and 28 days administration): modest, though significant reduction
- myostatin expression ([2]; sham-denervated muscle, not significant): tended to be decreased
- weights of denervated muscles versus vehicle ([3]; after 3 days of nandrolone (31 days)): similar
- increase in mass of muscles in the normal limb ([3]; nandrolone 0.75 mg/kg/wk plus testosterone from day 28, not significant): 2-5%

SMILES: C[C@]12CC[C@H]3[C@@H](CCC4=CC(=O)CC[C@@]43C)[C@@H]1CC[C@@H]2O [testosterone]
- repression of pMAF3.1 reporter activity ([4]; C2C12.AR cells, 5 nM testosterone): about 40%
- suppression of MAFbx reporter with 3′ deletion of 208 bases encoding the 5′ UTR ([4]; C2C12.AR cells, 500 nM): abolished suppression
- repression of pMAF3.1 reporter activity ([4]; C2C12.AR cells, 500 nM testosterone): greater than 50%
- repression of 5′ truncated MAFbx reporters ([4]; C2C12.AR cells, 500 nM, three 5′ truncations including pMAF400): apparent
- dexamethasone induced luciferase expression (pMAF3.1) ([4]; C2C12.AR cells, testosterone 5 nM): partially inhibited
- dexamethasone induced luciferase expression (pMAF3.1) ([4]; C2C12.AR cells, testosterone 50 nM): full suppression
- dexamethasone induced luciferase expression (pMAF3.1) ([4]; C2C12.AR cells, testosterone 500 nM): suppressed below that of untreated cells
- suppression of reporter under control of 3.1 of the MAFbx upstream promoter ([4]; C2C12 muscle cells, 500 nM): 40%
- expression of MAFbx reporter (general statement) ([4]; cells transduced with the MAFbx reporter construct): decreased
- effect on activity of pMAF3.1 reporter ([4]; wild-type C2C12 cells, 5 to 500 nM): no effect
- repression of pMAF3.1 reporter ([4]; wild-type C2C12 co-transfected with AR defective in nuclear entry (4RKM), 500 nM): No repression
- repression of pMAF3.1 reporter ([4]; wild-type C2C12 co-transfected with AR lacking ligand binding domain (ABC), 500 nM): absent
- repression of pMAF3.1 reporter ([4]; wild-type C2C12 co-transfected with DNA binding domain mutant AR (C562G), 500 nM): repression was observed
- pMAF3.1 reporter gene activity ([4]; wild-type C2C12 co-transfected with wild-type AR, 500 nM): significantly depressed
